According to US20260250290A1 (BRISTOL-MYERS SQUIBB COMPANY, priority 2023, published 2026):
Counter-ions that a name gives are not always drawn.

Target: T1, full length SGK1 (Homo sapiens, UniProt O00141)
T1 construct: 125 μM full length SGK1 (Life Technologies Part #PR7358A); purchased Life Technologies PR7358A
T1 sequence (O00141 1-431): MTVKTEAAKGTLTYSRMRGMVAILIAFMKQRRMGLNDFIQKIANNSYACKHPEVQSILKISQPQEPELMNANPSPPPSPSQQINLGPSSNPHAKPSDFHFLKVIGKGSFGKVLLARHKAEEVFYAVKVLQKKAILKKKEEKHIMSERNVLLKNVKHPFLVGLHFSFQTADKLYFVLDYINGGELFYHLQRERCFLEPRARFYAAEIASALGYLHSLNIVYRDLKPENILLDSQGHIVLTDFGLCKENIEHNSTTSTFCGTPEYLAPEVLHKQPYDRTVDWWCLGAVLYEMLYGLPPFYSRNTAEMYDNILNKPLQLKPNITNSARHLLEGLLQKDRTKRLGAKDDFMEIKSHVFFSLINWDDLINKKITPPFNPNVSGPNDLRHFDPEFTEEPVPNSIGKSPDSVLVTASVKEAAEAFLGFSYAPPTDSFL
Assay: SGK1 inhibition Assay A (Caliper LabChip electrophoretic separation of fluorescent peptide substrate and phosphorylated product)
Type: biochemical
Conditions: Assay A; 20 μM ATP, 40 min incubation; read-out: SGK1 IC50

Row | IC50 | SMILES
1 | 8 nM | N#Cc1cc(-c2cc(N3CCC[C@@H](NC(=O)c4sc(C(F)F)cc4OC4COC4)C3)c3c(N)ncnn23)ccn1 [Example 437, (R)-N-(1-(4-amino-7-(2-cyanopyridin-4-yl)pyrrolo[2,1-f][1,2,4]triazin-5-yl)piperidin-3-yl)-5-(difluoromethyl)-3-(oxetan-3-yloxy)thiophene-2-carboxamide]
2 | 6 nM | CC(=O)N1CC=C(c2cc(N3CCC[C@@H](NC(=O)c4sc(Cl)cc4OC4CCN(C)CC4F)C3)c3c(N)ncnn23)C1 (single isomer, unassigned) [Example 600]
3 | 1 nM | N#Cc1ccc(-c2cc(N3CCC[C@@H](NC(=O)c4sc(Cl)cc4OC4CC5(CNC5)C4)C3)c3c(N)ncnn23)cn1 [Example 591]
4 | 7 nM | CC(=O)N1CC=C(c2cc(N3CCC[C@@H](NC(=O)c4cccc(NCCN(C)C)n4)C3)c3c(N)ncnn23)C1 [Example 761, (R)-N-(1-(7-(1-acetyl-2,5-dihydro-1H-pyrrol-3-yl)-4-aminopyrrolo[2,1-f][1,2,4]triazin-5-yl)piperidin-3-yl)-6-((2-(dimethylamino)ethyl)amino)picolinamide]
5 | 19 nM | CC(=O)Nc1cccc(C(=O)N[C@@H]2CCCN(c3cc(C4=CCN(C(C)=O)C4)n4ncnc(N)c34)C2)c1 [Example 447, (R)-3-acetamido-N-(1-(7-(1-acetyl-2,5-dihydro-1H-pyrrol-3-yl)-4-aminopyrrolo[2,1-f][1,2,4]triazin-5-yl)piperidin-3-yl)benzamide]
6 | 11 nM | COC(=O)N1CC=C(c2cc(N3CCC[C@@H](NC(=O)c4sc(Cl)cc4OC4CCN(CC(C)(C)O)CC4)C3)c3c(N)ncnn23)C1 [Example 619, Methyl (R)-3-(4-amino-5-(3-(5-chloro-3-((1-(2-hydroxy-2-methylpropyl)piperidin-4-yl)oxy)thiophene-2-carboxamido)piperidin-1-yl)pyrrolo[2,1-f][1,2,4]triazin-7-yl)-2,5-dihydro-1H-pyrrole-1-carboxylate]
7 | 3 nM | CC(=O)N1CC=C(c2cc(N3CCC[C@@H](NC(=O)c4ccnc(N5CCN(C)CC5)n4)C3)c3c(N)ncnn23)C1 [Example 741]
8 | 13 nM | CC(=O)N1CC=C(c2cc(N3CCC[C@@H](NC(=O)c4cc(C5CC5)[nH]n4)C3)c3c(N)ncnn23)C1 [Example 747]
9 | 14 nM | Nc1ncnn2c(C3=CCN(C(=O)C4CCNCC4)C3)cc(N3CCC[C@@H](NC(=O)c4ccc(Cl)s4)C3)c12 [Example 894, (R)-N-(1-(4-amino-7-(1-(piperidine-4-carbonyl)-2,5-dihydro-1H-pyrrol-3-yl)pyrrolo[2,1-f][1,2,4]triazin-5-yl)piperidin-3-y1)-5-chlorothiophene-2-carboxamide]
10 | 12 nM | Nc1ncnn2c(C3=CCN(C(=O)C4CCCS(=O)(=O)C4)C3)cc(N3CCC[C@@H](NC(=O)c4ccc(Cl)s4)C3)c12 (stereo partly drawn) [Example 904, N-((3R)-1-(4-amino-7-(1-(1,1-dioxidotetrahydro-2H-thiopyran-3-carbonyl)-2,5-dihydro-1H-pyrrol-3-yl)pyrrolo[2,1-f][1,2,4]triazin-5-y1)piperidin-3-y1)-5-chlorothiophene-2-carboxamide]
11 | 80 nM | N#Cc1ccc(C(=O)N[C@@H]2CCCN(c3cc(C#N)n4ncnc(N)c34)C2)s1 [Example 696, (R)—N-(1-(4-amino-7-cyanopyrrolo[2,1-f][1,2,4]triazin-5-yl)piperidin-3-yl)-5-cyanothiophene-2-carboxamide]
12 | 213 nM | Nc1ncnn2c(-c3cn(CC(=O)O)nn3)cc(N3CCC[C@@H](NC(=O)c4ccc(Cl)s4)C3)c12 [Example 867, (R)-2-(4-(4-amino-5-(3-(5-chlorothiophene-2-carboxamido)piperidin-1-yl)pyrrolo[2,1-f][1,2,4]triazin-7-yl)-1H-1,2,3-triazol-1-yl)acetic acid]
13 | 26 nM | NC(=O)c1ncc(-c2cc(N3CCC[C@@H](NC(=O)c4ccc(C(F)F)s4)C3)c3c(N)ncnn23)cc1C(F)(F)F [Example 525]
14 | 16 nM | Nc1ncnn2c(-c3ccnc(C(F)F)c3)cc(N3CCC[C@@H](NC(=O)c4ccc(C5=CCNCC5)s4)C3)c12 [Example 553, (R)-N-(1-(4-amino-7-(2-(difluoromethyl)pyridin-4-yl)pyrrolo[2,1-f][1,2,4]triazin-5-yl)piperidin-3-yl)-5-(1,2,3,6-tetrahydropyridin-4-yl)thiophene-2-carboxamide]

The remaining lines, values behind:

Row | SMILES | IC50
15 | CN(C)CCOc1cc(Cl)sc1C(=O)N[C@@H]1CCCN(c2cc(-c3ccc(-n4cnc(C#N)n4)nc3)n3ncnc(N)c23)C1 [Example 191, (R)-N-(1-(4-amino-7-(6-(3-cyano-1H-1,2,4-triazol-1-yl)pyridin-3-yl)pyrrolo[2,1-f][1,2,4]triazin-5-yl)piperidin-3-yl)-5-chloro-3-(2-(dimethylamino)ethoxy) thiophene-2-carboxamide] | 6 nM
16 | CS(=O)(=O)c1ccc(-c2cc(N3CCC[C@@H](NC(=O)c4cncs4)C3)c3c(N)ncnn23)cc1 [Example 66, (R)-N-(1-(4-amino-7-(4-(methylsulfonyl)phenyl)pyrrolo[2,1-f][1,2,4]triazin-5-yl)piperidin-3-yl)thiazole-5-carboxamide] | 39 nM
17 | CS(=O)(=O)c1ccc(-c2cc(N3CCC[C@@H](NC(=O)c4ccncc4)C3)c3c(N)ncnn23)cc1 [Example 27, (R)-N-(1-(4-amino-7-(4-(methylsulfonyl)phenyl)pyrrolo[2,1-f][1,2,4]triazin-5-yl)piperidin-3-yl)isonicotinamide] | 12 nM
18 | Nc1ncnn2c(-c3ccnc(F)c3)cc(N3CCC[C@@H](NC(=O)c4sc(Cl)cc4OCCN4CCOCC4)C3)c12 [Example 148, (R)-N-(1-(4-amino-7-(2-fluoropyridin-4-yl)pyrrolo[2,1-f][1,2,4]triazin-5-yl)piperidin-3-yl)-5-chloro-3-(2-morpholinoethoxy) thiophene-2-carboxamide, TFA] | 5 nM
19 | Cn1cc(C(=O)N[C@@H]2CCCN(c3cc(-c4ccc(S(C)(=O)=O)cc4)n4ncnc(N)c34)C2)cn1 [Example 28, (R)-N-(1-(4-amino-7-(4-(methylsulfonyl)phenyl)pyrrolo[2,1-f][1,2,4]triazin-5-yl)piperidin-3-yl)-1-methyl-1H-pyrazole-4-carboxamide] | 32 nM
20 | C#Cc1cccc(C(=O)N[C@@H]2CCCN(c3cc(-c4ccc(S(C)(=O)=O)cc4)n4ncnc(N)c34)C2)c1 [Example 34, (R)-N-(1-(4-amino-7-(4-(methylsulfonyl)phenyl)pyrrolo[2,1-f][1,2,4]triazin-5-yl)piperidin-3-yl)-3-ethynylbenzamide] | 24 nM
21 | Nc1ncnn2c(-c3ccc(=O)n(CC(F)F)c3)cc(N3CCC[C@@H](NC(=O)c4sc(Cl)cc4OC4CN(CC(F)F)C4)C3)c12 [Example 387, (R)-N-(1-(4-amino-7-(1-(2,2-difluoroethyl)-6-oxo-1,6-dihydropyridin-3-yl)pyrrolo[2,1-f][1,2,4]triazin-5-yl)piperidin-3-yl)-5-chloro-3-((1-(2,2-difluoroethyl)azetidin-3-yl)oxy)thiophene-2-carboxamide] | 29 nM
22 | Cc1cc(-c2cc(N3CCC[C@@H](NC(=O)c4sc(C(F)F)cc4OC4COC4)C3)c3c(N)ncnn23)cnc1C#N [Example 436, (R)-N-(1-(4-amino-7-(6-cyano-5-methylpyridin-3-yl)pyrrolo[2,1-f][1,2,4]triazin-5-yl)piperidin-3-yl)-5-(difluoromethyl)-3-(oxetan-3-yloxy)thiophene-2-carboxamide] | 12 nM
23 | CS(=O)(=O)c1ccc(-c2cc(N3CCC[C@@H](NC(=O)c4ccc(F)c(F)c4)C3)c3c(N)ncnn23)cc1 [Example 26, (R)-N-(1-(4-amino-7-(4-(methylsulfonyl)phenyl)pyrrolo [2,1-f][1,2,4]triazin-5-yl)piperidin-3-yl)-3,4-difluorobenzamide] | 19 nM
24 | Nc1ncnn2c(-c3ccnc(C(F)F)c3)cc(N3CCC[C@@H](NC(=O)c4sc(Cl)cc4OCCN4CC(F)(F)C4)C3)c12 [Example 297] | 19 nM
25 | CS(=O)(=O)c1ccc(-c2cc(N3CC[C@H](F)[C@@H](NC(=O)c4ccc(Cl)s4)C3)c3c(N)ncnn23)cc1 (relative stereo) [Example 144, rel-N-((3R,4R)-1-(4-amino-7-(4-(methylsulfonyl)phenyl)pyrrolo[2,1-f][1,2,4]triazin-5-yl)-4-fluoropiperidin-3-yl)-5-chlorothiophene-2-carboxamide, TFA] | 24 nM
26 | COC(=O)N1CC=C(c2cc(N3CCC[C@@H](NC(=O)c4sc(Cl)cc4OCCN4CCCC4)C3)c3c(N)ncnn23)C1 [Example 292, Methyl (R)-3-(4-amino-5-(3-(5-chloro-3-(2-(pyrrolidin-1-yl)ethoxy)thiophene-2-carboxamido)piperidin-1-yl)pyrrolo[2,1-f] [1,2,4]triazin-7-yl)-2,5-dihydro-1H-pyrrole-1-carboxylate] | 10 nM
27 | Nc1ncnn2c(-c3ccnc(F)c3)cc(N3CCC[C@@H](NC(=O)Cc4ccc(Cl)s4)C3)c12 [Example 151, (R)-N-(1-(4-amino-7-(2-fluoropyridin-4-yl)pyrrolo[2,1-f][1,2,4]triazin-5-yl)piperidin-3-yl)-2-(5-chlorothiophen-2-yl)acetamide] | 285 nM
28 | CC(=O)N1CC=C(c2cc(N3CCC[C@@H](NC(=O)c4sc(C)nc4OC4CCN(C(C)C)CC4)C3)c3c(N)ncnn23)C1 [Example 358, (R)-N-(1-(7-(1-acetyl-2,5-dihydro-1H-pyrrol-3-yl)-4-aminopyrrolo[2,1-f][1,2,4]triazin-5-yl)piperidin-3-yl)-4-((1-isopropylpiperidin-4-yl)oxy)-2-methylthiazole-5-carboxamide] | 29 nM
